Target: T1, Glutathione peroxidase 4 (Strep-hGPX4) (Homo sapiens, UniProt P36969)
T1 construct: gene GPX4
T1 sequence (P36969 28-197): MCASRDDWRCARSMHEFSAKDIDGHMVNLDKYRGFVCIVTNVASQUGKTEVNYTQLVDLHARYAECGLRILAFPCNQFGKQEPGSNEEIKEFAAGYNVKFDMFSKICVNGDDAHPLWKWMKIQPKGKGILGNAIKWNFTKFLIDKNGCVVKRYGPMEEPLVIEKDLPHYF
Test: substrate turnover by isolated hGPX4, NADPH-coupled assay
Format: biochemical

Compound	substrate turnover by isolated hGPX4, NADPH-coupled assay
CC(C)(C)OO [tBuOOH, tert-butyl hydroperoxide]	All hydroperoxides except for H2O2 afforded the GPX4-dependent NADPH consumption in the assay system
CC(C)(OO)c1ccccc1 [cumeneOOH, cumene hydroperoxide]	All hydroperoxides except for H2O2 afforded the GPX4-dependent NADPH consumption in the assay system

Reference: publication PMC10985226, “A tangible method to assess native ferroptosis suppressor activity” (Cell Reports Methods, 2024)
